Reference: US9783536B2, “Nitrogen-containing heterocyclic compound or salt thereof” (FUJIFILM Corporation, priority 2013, dated 2017)
Like-named read-outs stand apart in the source and are kept apart here.

Experiments:
[1] = biological target: T1, GST fusion human ERK2 protein (Homo sapiens, UniProt P28482); experiment: ERK2 enzyme assay (2); type: biochemical; details: read-out: ERK2 enzyme inhibitory activity (2)
T1 construct: purchased Carna Biosciences, Inc; host or cells: E. coli expression system
Outline: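 IC50 values come from mobility-shift measurement of phosphorylated versus unphosphorylated 5-FAM peptide substrate after EDTA quench. Beforehand, compound and 1.25 nmol/L E. coli-expressed GST–human ERK2 stood 15 min at room temperature (pH 7.5), then 1 mmol/L ATP and 4.25 μmol/L substrate (final) were added for 120 min at 25 °C.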

human PI3Kα protein = biological target: T2, human PI3Kα protein (Homo sapiens, UniProt P42336); experiment: PI3Kα enzyme assay (ADP-Glo); type: biochemical; details: read-out: PI3Kα enzyme inhibitory activity
T2 construct: purchased Carna Biosciences, Inc; host or cells: baculovirus expression system
Outline: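 Biotinylated human PI3Kα (baculovirus-expressed, 4.5 nmol/L) pre-incubated 15 min with compound in Tris-HCl pH 7.5, MgCl2, BSA; reaction 60 min at 25° C with 50 μmol/L PIP2 and 100 μmol/L ATP final. ADP quantified by ADP-Glo luminescence; IC50 calculated.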

T2 sequence (P42336 whole entry): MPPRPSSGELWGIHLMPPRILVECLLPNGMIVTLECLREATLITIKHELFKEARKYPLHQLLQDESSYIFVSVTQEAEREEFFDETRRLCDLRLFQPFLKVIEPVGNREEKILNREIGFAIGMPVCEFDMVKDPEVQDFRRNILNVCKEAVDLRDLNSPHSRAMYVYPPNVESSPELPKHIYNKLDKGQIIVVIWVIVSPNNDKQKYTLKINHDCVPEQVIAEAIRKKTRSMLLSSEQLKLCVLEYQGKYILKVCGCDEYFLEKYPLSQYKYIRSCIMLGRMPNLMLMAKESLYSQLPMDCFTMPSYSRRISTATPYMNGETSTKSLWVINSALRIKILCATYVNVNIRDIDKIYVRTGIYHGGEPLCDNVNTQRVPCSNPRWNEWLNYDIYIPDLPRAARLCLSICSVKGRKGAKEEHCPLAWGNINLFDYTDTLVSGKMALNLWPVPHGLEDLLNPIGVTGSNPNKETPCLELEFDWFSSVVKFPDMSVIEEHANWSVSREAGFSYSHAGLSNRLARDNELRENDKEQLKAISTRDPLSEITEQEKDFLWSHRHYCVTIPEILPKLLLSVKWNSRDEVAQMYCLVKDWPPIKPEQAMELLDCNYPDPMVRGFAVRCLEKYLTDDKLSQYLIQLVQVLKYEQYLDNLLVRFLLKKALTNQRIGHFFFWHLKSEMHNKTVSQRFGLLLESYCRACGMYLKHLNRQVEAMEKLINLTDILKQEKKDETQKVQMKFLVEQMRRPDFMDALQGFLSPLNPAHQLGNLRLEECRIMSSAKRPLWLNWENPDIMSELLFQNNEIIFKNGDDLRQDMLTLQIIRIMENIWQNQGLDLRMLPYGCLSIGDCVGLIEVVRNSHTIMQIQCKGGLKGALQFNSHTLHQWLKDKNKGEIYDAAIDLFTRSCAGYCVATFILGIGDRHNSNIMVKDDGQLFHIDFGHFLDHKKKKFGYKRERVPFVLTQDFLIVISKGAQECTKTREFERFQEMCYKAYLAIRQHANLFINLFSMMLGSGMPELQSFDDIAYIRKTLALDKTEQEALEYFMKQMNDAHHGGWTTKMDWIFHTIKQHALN
T2 sequence (P27986 whole entry partner): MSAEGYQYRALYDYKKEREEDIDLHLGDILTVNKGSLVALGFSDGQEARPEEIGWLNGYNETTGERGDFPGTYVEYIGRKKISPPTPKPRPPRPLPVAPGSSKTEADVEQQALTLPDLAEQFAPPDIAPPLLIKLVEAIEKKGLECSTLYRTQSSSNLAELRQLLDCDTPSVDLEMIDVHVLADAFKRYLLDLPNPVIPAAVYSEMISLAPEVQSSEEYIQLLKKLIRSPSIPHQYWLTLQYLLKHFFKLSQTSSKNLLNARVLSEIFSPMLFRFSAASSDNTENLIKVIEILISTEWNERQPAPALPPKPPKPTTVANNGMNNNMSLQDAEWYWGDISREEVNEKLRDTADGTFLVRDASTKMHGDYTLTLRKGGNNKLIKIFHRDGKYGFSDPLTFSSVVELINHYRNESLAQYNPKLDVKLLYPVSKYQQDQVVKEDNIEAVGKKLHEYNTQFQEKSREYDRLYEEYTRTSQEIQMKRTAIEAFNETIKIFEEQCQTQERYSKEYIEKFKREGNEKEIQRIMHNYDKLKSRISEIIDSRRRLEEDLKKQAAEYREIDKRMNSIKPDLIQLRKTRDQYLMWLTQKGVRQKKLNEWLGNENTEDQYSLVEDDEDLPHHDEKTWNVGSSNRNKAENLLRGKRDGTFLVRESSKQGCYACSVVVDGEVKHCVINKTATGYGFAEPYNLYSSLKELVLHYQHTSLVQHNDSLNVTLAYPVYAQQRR
T1 sequence (P28482 whole entry, the tested form may be a part): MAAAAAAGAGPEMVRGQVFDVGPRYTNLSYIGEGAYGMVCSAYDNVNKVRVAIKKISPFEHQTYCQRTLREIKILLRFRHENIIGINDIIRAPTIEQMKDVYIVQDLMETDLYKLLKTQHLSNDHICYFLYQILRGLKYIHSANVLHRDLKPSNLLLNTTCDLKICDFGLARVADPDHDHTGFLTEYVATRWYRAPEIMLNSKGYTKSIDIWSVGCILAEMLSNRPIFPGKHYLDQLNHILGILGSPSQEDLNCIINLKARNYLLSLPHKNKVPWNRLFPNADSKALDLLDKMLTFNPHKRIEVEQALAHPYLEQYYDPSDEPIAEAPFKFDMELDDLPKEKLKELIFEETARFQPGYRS

Row | Compound | IC50 [1] | IC50 (human PI3Kα protein) | IC50 ([1]; ERK2 enzyme assay (2))
1 | CCOc1c(-c2cnn(C)c2)cnc2ccc(Nc3cc(C(C)C)cnn3)nc12 [Example 0951, 8-Ethoxy-N-(5-isopropylpyridazin-3-yl)-7-(1-methyl-1H-pyrazol-4-yl)-1,5-naphthyridine-2-amine] | < 1000 nM | < 1000 nM | 
2 | CCOC(C)c1cnnc(Nc2ccc3ncc(-c4cn(C)nc4C)cc3n2)c1 (stereo not drawn) [Example 0921] | < 1000 nM | < 1000 nM | 
3 | CC(C)c1cnnc(Nc2ccc3ncc(-c4cn(C)nc4NCc4cnn(C)c4)cc3n2)c1 [Example 0836] |  | < 1000 nM | 1000 to 10000 nM
4 | Cc1cnnc(Nc2ccc3ncc(-c4cn(C)nc4-c4cccnc4)cc3n2)c1 [Example 0527] |  | < 1000 nM | 1000 to 10000 nM
5 | CCOC(=O)N1CCN(CCCn2cc(-c3cnc4ccc(Nc5cc(C(C)C)cnn5)nc4c3)cn2)CC1 [Example 0437, Ethyl 4-(3-(4-(6-((5-isopropylpyridazin-3-yl)amino)-1,5-naphthyridin-3-yl)-1H-pyrazol-1-yl)propyl)piperazine-1-carboxylate] |  | < 1000 nM | < 1000 nM
6 | CCC(C)c1cnnc(Nc2ccc3ncc(-c4cn(C)nc4C)cc3n2)c1 (stereo not drawn) [Example 0916] | < 1000 nM | < 1000 nM | 
7 | C=C(C)c1cnnc(Nc2ccc3ncc(-c4cnn(C)c4)cc3n2)c1 [Example 0787, 7-(1-Methyl-1H-pyrazol-4-yl)-N-(5-(prop-1-en-2-yl)pyridazin-3-yl)-1,5-naphthyridine-2-amine] |  | < 1000 nM | < 1000 nM
8 | COCC1(Nc2cnc3ccc(Nc4cc(C(C)C)cnn4)nc3c2)CCC1 [Example 0889] |  | 10000 to 50000 nM | 10000 to 50000 nM
9 | CN(C)c1cnnc(Nc2ccc3ncc(-c4cnn(C)c4)cc3n2)c1 [Example 0518] |  | < 1000 nM | < 1000 nM
10 | Cc1nn(C)cc1-c1cnc2ccc(Nc3cc(C4CCCCC4)cnn3)nc2c1 [Example 0926, N-(5-cyclohexylpyridazin-3-yl)-7-(1,3-dimethyl-1H-pyrazol-4-yl)-1,5-naphthyridine-2-amine] | < 1000 nM | < 1000 nM | 
11 | CC(C)c1cnnc(Nc2ccc3ncc(-c4cnn(CC(F)CN5CCCC5)c4)cc3n2)c1 (stereo not drawn) [Example 0727] |  | < 1000 nM | < 1000 nM
12 | CC(C)c1cnnc(Nc2ccc3ncc(N4CC(OCCF)C4)cc3n2)c1 [Example 0864] |  | < 1000 nM | < 1000 nM
13 | Cc1cnnc(Nc2ccc3ncc(-c4cn(C)nc4-c4ccc(C#N)nc4)cc3n2)c1 [Example 0457] |  | < 1000 nM | 10000 to 50000 nM
14 | COC(=O)c1ccc(Cn2cc(-c3cnc4ccc(Nc5cc(C(C)C)cnn5)nc4c3)cn2)cc1 [Example 0792] |  | < 1000 nM | < 1000 nM
15 | CC(C)c1cnnc(Nc2ccc3ncc(-c4cnn(CCOC5CN(C(=O)OC(C)(C)C)C5)c4)cc3n2)c1 [Example 0739, tert-Butyl 3-(2-(4-(6-((5-isopropylpyridazin-3-yl)amino)-1,5-naphthyridin-3-yl)-1H-pyrazol-1-yl)ethoxy)azetidine-1-carboxylate] |  | 1000 to 10000 nM | < 1000 nM
16 | Cc1nn(C)cc1-c1cnc2ccc(Nc3cc(CC(C)C)cnn3)nc2c1 [Example 0790] |  | < 1000 nM | < 1000 nM
17 | Cc1cn(-c2cnc3ccc(Nc4cc(C(C)C)cnn4)nc3c2)cn1 [Example 0494, N-(5-isopropylpyridazin-3-yl)-7-(4-methyl-1H-imidazol-1-yl)-1,5-naphthyridine-2-amine] |  | < 1000 nM | < 1000 nM
18 | Cc1cncc(-c2cnc3ccc(Nc4cc(C(C)C)cnn4)nc3c2)c1 [Example 0598] |  | 1000 to 10000 nM | < 1000 nM
19 | CC(C)c1cnnc(Nc2ccc3ncc(-c4cn(C)nc4CN4CCN(C)CC4)cc3n2)c1 [Example 0912, N-(5-isopropylpyridazin-3-yl)-7-(1-methyl-3-((4-methylpiperazin-1-yl)methyl)-1H-pyrazol-4-yl)-1,5-naphthyridine-2-amine] | < 1000 nM | < 1000 nM | 
20 | Cc1ncccc1-c1cnc2ccc(Nc3cc(C(C)C)cnn3)nc2c1 [Example 0599] |  | 1000 to 10000 nM | < 1000 nM
21 | CC(C)c1cnnc(Nc2ccc3ncc(-c4cnn(CCCN5C[C@@H](C)N(C(=O)N(C)C)[C@@H](C)C5)c4)cc3n2)c1 [Example 0436] |  | < 1000 nM | < 1000 nM
22 | COc1cccc(OCc2nn(C)cc2-c2cnc3ccc(Nc4cc(C(C)C)cnn4)nc3c2)c1 [Example 0805] |  | < 1000 nM | < 1000 nM
23 | CC(C)c1cnnc(Nc2ccc3ncc(N4CCCC4)cc3n2)c1 [Example 0846, N-(5-isopropylpyridazin-3-yl)-7-(pyrrolidin-1-yl)-1,5-naphthyridine-2-amine] |  | 1000 to 10000 nM | < 1000 nM
24 | CC(C)c1cnnc(Nc2ccc3ncc(-c4cn(C)nc4NC4CNC4)cc3n2)c1 [Example 0826] |  | < 1000 nM | < 1000 nM

Row | Compound | IC50 [1] | IC50 (human PI3Kα protein) | IC50 ([1]; ERK2 enzyme assay (2))
25 | CC(C)c1cnnc(Nc2ccc3ncc(N4CCS(=O)(=O)CC4)cc3n2)c1 [Example 0857] |  | 1000 to 10000 nM | < 1000 nM
26 | CC(C)c1cnnc(Nc2ccc3ncc(-c4cncs4)cc3n2)c1 [Example 0620] |  | < 1000 nM | < 1000 nM
27 | CCn1cc(-c2cnc3ccc(Nc4cc(C(C)C)cnn4)nc3c2)cn1 [Example 0440, 7-(1-Ethyl-1H-pyrazol-4-yl)-N-(5-isopropylpyridazin-3-yl)-1,5-naphthyridine-2-amine] |  | < 1000 nM | < 1000 nM
28 | CCN(CCO)c1cnnc(Nc2ccc3ncc(-c4cnn(C)c4)cc3n2)c1 [Example 0525] |  | < 1000 nM | < 1000 nM
29 | CC(C)c1cnnc(Nc2ccc3ncc(-c4cnn(CC5CCN(C(=O)C6CCCCC6)CC5)c4)cc3n2)c1 [Example 0538] |  | < 1000 nM | < 1000 nM
30 | CCC(CC)c1cnnc(Nc2ccc3ncc(-c4cn(C)nc4-c4ccncc4)cc3n2)c1 [Example 0770] |  | < 1000 nM | < 1000 nM
31 | CC(C)c1cnnc(Nc2ccc3ncc(N4CC(OCC(F)(F)F)C4)cc3n2)c1 [Example 0865] |  | 1000 to 10000 nM | 1000 to 10000 nM
32 | CC(C)c1cnnc(Nc2ccc3ncc(N4CCC(C(N)=O)C4)cc3n2)c1 (stereo not drawn) [Example 0898] |  | < 1000 nM | 1000 to 10000 nM
33 | COc1ccc(-c2nn(C)cc2-c2cnc3ccc(Nc4cc(C)cnn4)nc3c2)cn1 [Example 0458] |  | < 1000 nM | 10000 to 50000 nM
34 | CCCCOC1CN(c2cnc3ccc(Nc4cc(C(C)C)cnn4)nc3c2)C1 [Example 0870] |  | 1000 to 10000 nM | 1000 to 10000 nM
35 | CC(=O)N(C)c1cnc2ccc(Nc3cc(C(C)C)cnn3)nc2c1 [Example 0628, N-(6-((5-isopropylpyridazin-3-yl)amino)-1,5-naphthyridin-3-yl)-N-methylacetamide] |  | 10000 to 50000 nM | < 1000 nM
36 | CC(C)c1cnnc(Nc2ccc3ncc(-c4cnn(CC(CN5CCOCC5)OCc5ccccc5)c4)cc3n2)c1 (stereo not drawn) [Example 0732] |  | < 1000 nM | < 1000 nM
37 | CC(C)c1cnnc(Nc2ccc3ncc(/C=C/c4ccncc4)cc3n2)c1 [Example 0652, (E)-N-(5-isopropylpyridazin-3-yl)-7-(2-(pyridin-4-yl)vinyl)-1,5-naphthyridine-2-amine] |  | < 1000 nM | < 1000 nM
38 | CC(C)c1cnnc(Nc2ccc3ncc(-c4cnn(CCCN5CCCCC5=O)c4)cc3n2)c1 [Example 0415, 1-(3-(4-(6-((5-Isopropylpyridazin-3-yl)amino)-1,5-naphthyridin-3-yl)-1H-pyrazol-1-yl)propyl)piperidin-2-one] |  | < 1000 nM | < 1000 nM
39 | CC(=O)N1CC(Cn2cc(-c3cnc4ccc(Nc5cc(C(C)C)cnn5)nc4c3)cn2)C1 [Example 0438, 1-(3-((4-(6-((5-isopropylpyridazin-3-yl)amino)-1,5-naphthyridin-3-yl)-1H-pyrazol-1-yl)methyl)azetidin-1-yl)ethanone] |  | < 1000 nM | < 1000 nM
40 | CC(=O)Nc1cnc2ccc(Nc3cc(C(C)C)cnn3)nc2c1 [Example 0625, N-(6-((5-isopropylpyridazin-3-yl)amino)-1,5-naphthyridin-3-yl)acetamide] |  | < 1000 nM | 1000 to 10000 nM
41 | CC(C)c1cnnc(Nc2ccc3ncc(N4CC5CC(C4)O5)cc3n2)c1 [Example 0902] | < 1000 nM | < 1000 nM | 
42 | CC(C)c1cnnc(Nc2ccc3ncc(-c4cnn(CCN5CC(O)C5)c4)cc3n2)c1 [Example 0612] |  | < 1000 nM | < 1000 nM
43 | CC(C)c1cnnc(Nc2ccc3ncc(Br)cc3n2)c1 [Example 0929, 7-bromo-N-(5-isopropylpyridazin-3-yl)-1,5-naphthyridine-2-amine] | < 1000 nM | 1000 to 10000 nM | 
44 | CC(C)c1cnnc(Nc2ccc3ncc(C4=CCOCC4)cc3n2)c1 [Example 0580] |  | < 1000 nM | < 1000 nM
45 | CC(C)c1cnnc(Nc2ccc3ncc(-c4scnc4-c4cccnc4)cc3n2)c1 [Example 0578] |  | < 1000 nM | < 1000 nM
46 | c1nnc(Nc2ccc3ncc(-c4cnn(CCOC5CNC5)c4)cc3n2)cc1CC1CCCCC1 [Example 0817] |  | < 1000 nM | < 1000 nM
47 | CC(C)c1cnnc(Nc2ccc3ncc(-c4cnn(CC(=O)N5CCOCC5)c4)cc3n2)c1 [Example 0558] |  | < 1000 nM | < 1000 nM
48 | CC(C)c1cnnc(Nc2ccc3ncc(-c4cnn(Cc5cccc([N+](=O)[O-])c5)c4)cc3n2)c1 [Example 0711] |  | < 1000 nM | < 1000 nM
